The record followed here is patent publication US7785587B2, “Therapeutic methods for muscular or neuromuscular disorders” (Wyeth, priority 2003, dated 2010).

Type in all cases: in vivo, mouse
The subject of assay [1] is C57BL/10ScSn-mdx/j mice. As to the kind of experiment: Grip strength of mdx mice treated 4 weeks with prednisone with or without JA-16 (Example 2). To be noted: JA-16 60 mg/kg per week IP, prednisone 2 mg/kg SC 3 times a week. As for the experimental part: (§1) Male C57BL/10ScSn-mdx/j and C57BL/10 (Jackson Laboratory, Bar Harbor, Me.). Mouse monoclonal anti-GDF-8 antibody JA-16, prednisone (P-9901, Sigma), or vehicle (peanut oil) was injected starting at age 5-7 weeks for 4 weeks. Mice were intraperitoneally (IP) injected with JA-16 at a dose of 60 mg/kg per week (double dosing at first week), or subcutaneously (SC) injected with prednisone at 2 mg/kg, 3 times a week. The body weight and grip strength were monitored before, during and after treatment. Results are shown in Table 3 and Table 4, respectively.

The next assay relates to IL6. Description: Serum IL6 in mice treated with prednisone. To be noted: separate cohort of mice treated with prednisone. As for the experimental part:
(§2) At the end of the study, mice were sacrificed and muscle mass was assessed by dissecting and weighing the gastrocnemius and quadriceps. To confirm biological activity of prednisone, sera from a separate cohort of mice were collected and analyzed for IL6 and IL1β (Ani Lyctics, Inc., Gaithersburg, Md.).

The next assay has as its system IL1β. Description: Serum IL1β in mice treated with prednisone. Particulars: separate cohort of mice treated with prednisone. As for the experimental part:
as §2

For assay [2], the system named is C57BL/10ScSn-mdx/j mice. Description: Gastrocnemius and quadriceps weight in mdx mice treated 4 weeks with prednisone with or without JA-16 (Example 2). To be noted: end of 4-week study. The protocol:
Male C57BL/10ScSn-mdx/j and C57BL/10 (Jackson Laboratory, Bar Harbor, Me.). Mouse monoclonal anti-GDF-8 antibody JA-16, prednisone (P-9901, Sigma), or vehicle (peanut oil) was injected starting at age 5-7 weeks for 4 weeks. Mice were intraperitoneally (IP) injected with JA-16 at a dose of 60 mg/kg per week (double dosing at first week), or subcutaneously (SC) injected with prednisone at 2 mg/kg, 3 times a week.
as §2

For assay [3], the system named is C57BL/10ScSn-mdx/j mice. As to the kind of experiment: Total body weight of mdx mice treated 4 weeks with prednisone with or without JA-16 (Example 2). Particulars: JA-16 60 mg/kg per week IP, prednisone 2 mg/kg SC 3 times a week. The protocol:
as §1

As for `C[C@]12C=CC(=O)C=C1CC[C@@H]1[C@@H]2C(=O)C[C@@]2(C)[C@H]1CC[C@]2(O)C(=O)CO` [Prednisone, prednisone], the figures for the “Grip strength (average ± SEM)” value with C57BL/10ScSn-mdx/j mice [1] (week 0 of trial), in the assay with C57BL/10ScSn-mdx/j mice [1] (week 3 of trial) and in the assay on C57BL/10ScSn-mdx/j mice [1] (week 4 of trial) were 0.144 ± 0.010 lb, 0.177 ± 0.006 lb and 0.213 ± 0.011 lb, respectively. Further, the IL6 in sera entry in the assay with IL6 is “reduced”. For the same molecule, the IL1β in sera result in the assay on IL1β is reported as “reduced”. The “Muscle weight (average ± SEM), Gastroc” value in the assay with C57BL/10ScSn-mdx/j mice [2] amounted to 0.287 ± 0.023 g. For the same molecule, the “Muscle weight (average ± SEM), Quad” value with C57BL/10ScSn-mdx/j mice [2] was 0.417 ± 0.029 g. For the same molecule, the “Total body weight (average ± SEM)” value is 17.6 ± 1.8 g in the assay on C57BL/10ScSn-mdx/j mice [3] (week 0 of trial); 20.9 ± 1.8 g in the assay with C57BL/10ScSn-mdx/j mice [3] (week 1 of trial); 24.2 ± 1.6 g in the assay with C57BL/10ScSn-mdx/j mice [3] (week 2 of trial); 24.7 ± 1.5 g with C57BL/10ScSn-mdx/j mice [3] (week 3 of trial); 25.9 ± 1.6 g with C57BL/10ScSn-mdx/j mice [3] (week 4 of trial).
